Reference: PubChem BioAssay (NCI)
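How tested: cells in 96-well plates exposed to compound for 48 hours at five concentrations. TGI: total growth inhibition.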

Columns and labels:
Experiment in all cases: NCI anticancer screen, dose series, 48 h
DU-145 prostate = test system: DU-145 prostate
NCI-H226 lung = test system: NCI-H226 lung
HT29 colon = test system: HT29 colon
CAKI-1 renal = test system: CAKI-1 renal
RXF 393 renal = test system: RXF 393 renal
SK-MEL-5 melanoma = test system: SK-MEL-5 melanoma
NCI-H23 lung = test system: NCI-H23 lung
OVCAR-4 ovarian = test system: OVCAR-4 ovarian
MCF7 breast = test system: MCF7 breast
U251 CNS = test system: U251 CNS
MDA-MB-435 = test system: MDA-MB-435

Cc1ccc(S(=O)(=O)OC2CN3CCC2CC3)cc1 (stereo unspecified)
TGI (DU-145 prostate): > 100 µM | TGI (NCI-H226 lung): > 100 µM | TGI (HT29 colon): > 100 µM | TGI (CAKI-1 renal): > 100 µM | TGI (RXF 393 renal): > 100 µM | TGI (SK-MEL-5 melanoma): > 100 µM | TGI (NCI-H23 lung): > 100 µM | TGI (OVCAR-4 ovarian): > 100 µM | TGI (MCF7 breast): > 100 µM | TGI (U251 CNS): > 100 µM | TGI (MDA-MB-435): > 100 µM

CCOC(=O)Cc1csc(/N=C\c2c(O)c3ccccc3oc2=O)n1
TGI (NCI-H226 lung): 97.8 µM | TGI (HT29 colon): > 100 µM | TGI (CAKI-1 renal): > 100 µM | TGI (RXF 393 renal): > 100 µM | TGI (SK-MEL-5 melanoma): 52.6 µM | TGI (NCI-H23 lung): 94.4 µM | TGI (OVCAR-4 ovarian): > 100 µM | TGI (MCF7 breast): > 100 µM | TGI (U251 CNS): > 100 µM | TGI (MDA-MB-435): 85.4 µM

CC(C)(C)[C@@H]1NC(=O)CN1C(=O)OCc1ccccc1
TGI (DU-145 prostate): > 100 µM | TGI (NCI-H226 lung): > 100 µM | TGI (HT29 colon): > 100 µM | TGI (RXF 393 renal): > 100 µM | TGI (SK-MEL-5 melanoma): > 100 µM | TGI (NCI-H23 lung): > 100 µM | TGI (OVCAR-4 ovarian): > 100 µM | TGI (MCF7 breast): > 100 µM | TGI (U251 CNS): > 100 µM | TGI (MDA-MB-435): > 100 µM

CC(=O)OC1COC(N2C(=O)C(=O)c3cc(Br)c([N+](=O)[O-])cc32)C(OC(C)=O)C1OC(C)=O (stereo unspecified)
TGI (NCI-H226 lung): > 100 µM | TGI (HT29 colon): > 100 µM | TGI (CAKI-1 renal): > 100 µM | TGI (RXF 393 renal): 82.3 µM | TGI (SK-MEL-5 melanoma): > 100 µM | TGI (NCI-H23 lung): > 100 µM | TGI (OVCAR-4 ovarian): > 100 µM | TGI (U251 CNS): > 100 µM

N#CC(C(=O)c1ccccc1F)c1nc2cc(C(F)(F)F)ccc2s1 (stereo unspecified)
TGI (DU-145 prostate): > 100 µM | TGI (NCI-H226 lung): > 100 µM | TGI (HT29 colon): 53.2 µM | TGI (CAKI-1 renal): > 100 µM | TGI (RXF 393 renal): > 100 µM | TGI (SK-MEL-5 melanoma): 52.3 µM | TGI (NCI-H23 lung): 53.9 µM | TGI (OVCAR-4 ovarian): > 100 µM | TGI (U251 CNS): > 100 µM | TGI (MDA-MB-435): > 100 µM

CC(C)C[C@H](NC(=O)[C@@H](Cc1cccc2ccccc12)NC(=O)N1CCOCC1)B(O)O
TGI (DU-145 prostate): 29.7 µM | TGI (NCI-H226 lung): 3.2 µM | TGI (HT29 colon): 8.86 µM | TGI (CAKI-1 renal): 33.2 µM | TGI (RXF 393 renal): 6.8 µM | TGI (SK-MEL-5 melanoma): 9.24 µM | TGI (NCI-H23 lung): 8.94 µM | TGI (OVCAR-4 ovarian): > 57.8 µM | TGI (MCF7 breast): > 52.7 µM | TGI (U251 CNS): 17.7 µM | TGI (MDA-MB-435): 3.79 µM

COc1ccc(NS(=O)C2CCCCC2)cc1 (stereo unspecified)
TGI (DU-145 prostate): > 100 µM | TGI (NCI-H226 lung): > 100 µM | TGI (HT29 colon): > 100 µM | TGI (CAKI-1 renal): > 100 µM | TGI (RXF 393 renal): > 100 µM | TGI (SK-MEL-5 melanoma): > 100 µM | TGI (NCI-H23 lung): > 100 µM | TGI (MCF7 breast): > 100 µM | TGI (U251 CNS): > 100 µM | TGI (MDA-MB-435): > 100 µM

N#Cc1nn(-c2ccc(Cl)cc2)c(N)c2c(=N)n3nc(-c4ccccc4)cc3nc12
TGI (NCI-H226 lung): > 100 µM | TGI (HT29 colon): > 32.8 µM | TGI (CAKI-1 renal): > 100 µM | TGI (RXF 393 renal): 76.8 µM | TGI (NCI-H23 lung): > 51.9 µM | TGI (U251 CNS): > 55.8 µM

CCOC(=O)c1ccc(N=C/C=C(\Nc2ccc(C(=O)OCC)cc2)c2ccc3ccccc3c2)cc1
TGI (DU-145 prostate): > 100 µM | TGI (NCI-H226 lung): 96.9 µM | TGI (HT29 colon): 49 µM | TGI (CAKI-1 renal): 83.8 µM | TGI (RXF 393 renal): 57.3 µM | TGI (SK-MEL-5 melanoma): 34.7 µM | TGI (NCI-H23 lung): 54 µM | TGI (OVCAR-4 ovarian): 80.3 µM | TGI (MCF7 breast): 67 µM | TGI (U251 CNS): > 100 µM | TGI (MDA-MB-435): 33.3 µM

Cn1c2ccccc2n2c(=O)c(-c3ccc(O)cc3)nnc12
TGI (DU-145 prostate): > 100 µM | TGI (NCI-H226 lung): > 100 µM | TGI (HT29 colon): > 100 µM | TGI (CAKI-1 renal): > 100 µM | TGI (SK-MEL-5 melanoma): > 100 µM | TGI (NCI-H23 lung): > 100 µM | TGI (OVCAR-4 ovarian): > 100 µM | TGI (MCF7 breast): > 100 µM | TGI (U251 CNS): 85.8 µM | TGI (MDA-MB-435): > 100 µM

COc1cc(/C=C\c2ccc(SC)cc2)cc(OC)c1OC
TGI (DU-145 prostate): > 100 µM | TGI (HT29 colon): 0.59 µM | TGI (RXF 393 renal): 0.0402 µM | TGI (SK-MEL-5 melanoma): 2.72 µM | TGI (NCI-H23 lung): 0.408 µM | TGI (OVCAR-4 ovarian): > 100 µM | TGI (MCF7 breast): > 100 µM | TGI (U251 CNS): 1.11 µM | TGI (MDA-MB-435): > 100 µM

O=Cc1cc(O)c(O)c(O)c1-c1c(C=O)cc(O)c(O)c1O
TGI (NCI-H226 lung): > 100 µM | TGI (HT29 colon): > 100 µM | TGI (CAKI-1 renal): > 100 µM | TGI (SK-MEL-5 melanoma): > 100 µM | TGI (NCI-H23 lung): > 100 µM | TGI (OVCAR-4 ovarian): > 100 µM | TGI (U251 CNS): > 100 µM

C=C1C(=O)O[C@H]2C1C[C@@H](O)[C@@]1(C)OC1CC[C@@]1(C)O[C@H]21 (stereo partly specified)
TGI (DU-145 prostate): > 100 µM | TGI (HT29 colon): 98.9 µM | TGI (CAKI-1 renal): 34.1 µM | TGI (RXF 393 renal): 34.4 µM | TGI (SK-MEL-5 melanoma): 29.6 µM | TGI (NCI-H23 lung): 37.4 µM | TGI (OVCAR-4 ovarian): 30.3 µM | TGI (MCF7 breast): 29 µM | TGI (U251 CNS): > 100 µM | TGI (MDA-MB-435): 60 µM

O=C(/C=C1\N=C(c2ccccc2)N(c2ccc3c(c2)Sc2cc(N4C(=O)/C(=C/C(=O)/C=C/c5ccccc5)N=C4c4ccccc4)ccc2N3)C1=O)/C=C/c1ccccc1
TGI (DU-145 prostate): > 100 µM | TGI (HT29 colon): > 100 µM | TGI (CAKI-1 renal): > 100 µM | TGI (RXF 393 renal): > 100 µM | TGI (SK-MEL-5 melanoma): 33.5 µM | TGI (NCI-H23 lung): > 100 µM | TGI (OVCAR-4 ovarian): 41.8 µM | TGI (MCF7 breast): 56.1 µM | TGI (U251 CNS): 57.8 µM | TGI (MDA-MB-435): 44.4 µM

CC1(C)COC(c2cccc(C3=NC(C)(C)CO3)c2)=N1
TGI (DU-145 prostate): > 100 µM | TGI (NCI-H226 lung): > 100 µM | TGI (HT29 colon): > 100 µM | TGI (CAKI-1 renal): > 100 µM | TGI (SK-MEL-5 melanoma): > 100 µM | TGI (NCI-H23 lung): > 100 µM | TGI (OVCAR-4 ovarian): > 100 µM | TGI (MCF7 breast): > 100 µM | TGI (U251 CNS): > 100 µM | TGI (MDA-MB-435): > 100 µM

OC(Cn1cncn1)(Cn1cncn1)c1ccc(Cl)cc1Cl
TGI (NCI-H226 lung): > 100 µM | TGI (HT29 colon): > 100 µM | TGI (CAKI-1 renal): > 100 µM | TGI (RXF 393 renal): > 100 µM | TGI (SK-MEL-5 melanoma): > 100 µM | TGI (NCI-H23 lung): > 100 µM | TGI (OVCAR-4 ovarian): > 100 µM | TGI (U251 CNS): > 100 µM

COC(=O)CP1(=O)OC2C(C3CCC2(C)C3(C)C)N1c1cc(C(F)(F)F)cc(C(F)(F)F)c1 (stereo unspecified)
TGI (DU-145 prostate): > 100 µM | TGI (NCI-H226 lung): 71.7 µM | TGI (HT29 colon): > 100 µM | TGI (CAKI-1 renal): 83.1 µM | TGI (SK-MEL-5 melanoma): > 100 µM | TGI (NCI-H23 lung): 86.3 µM | TGI (OVCAR-4 ovarian): > 100 µM | TGI (MCF7 breast): > 100 µM | TGI (U251 CNS): > 100 µM | TGI (MDA-MB-435): 60.6 µM

C#CCNC(Cc1ccccc1)C(=O)O (stereo unspecified)
TGI (DU-145 prostate): > 100 µM | TGI (NCI-H226 lung): > 100 µM | TGI (HT29 colon): > 100 µM | TGI (CAKI-1 renal): > 100 µM | TGI (RXF 393 renal): > 100 µM | TGI (SK-MEL-5 melanoma): > 100 µM | TGI (NCI-H23 lung): > 100 µM | TGI (OVCAR-4 ovarian): > 100 µM | TGI (U251 CNS): > 100 µM | TGI (MDA-MB-435): > 100 µM
